Assay results: PubChem BioAssay (NCI)
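Growth conditions: 96-well plates. Treatment: test compound, 48 hours, 5 concentrations. Analysis: linear interpolation between bracketing concentrations; unreached endpoints set to highest concentration. GI50 is the concentration that inhibits growth by half. TGI denotes the concentration required for complete inhibition of growth.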

What was measured:
Test in all cases: inhibition of tumour cell growth, NCI panel, 48 h
786-0 renal = test system: 786-0 renal
A498 renal = test system: A498 renal
A549 NSCLC = test system: A549 NSCLC
ACHN renal = test system: ACHN renal
BT-549 breast = test system: BT-549 breast
CCRF-CEM leukemia = test system: CCRF-CEM leukemia
COLO 205 colon = test system: COLO 205 colon
DU-145 prostate = test system: DU-145 prostate
EKVX NSCLC = test system: EKVX NSCLC
HCC-2998 colon = test system: HCC-2998 colon
HCT-116 colon = test system: HCT-116 colon
HCT-15 colon = test system: HCT-15 colon
HL-60(TB) leukemia = test system: HL-60(TB) leukemia
HOP-62 NSCLC = test system: HOP-62 NSCLC
HOP-92 NSCLC = test system: HOP-92 NSCLC
HS 578T breast = test system: HS 578T breast
HT29 colon = test system: HT29 colon
IGROV1 ovarian = test system: IGROV1 ovarian
K-562 leukemia = test system: K-562 leukemia
KM12 colon = test system: KM12 colon
LOX IMVI melanoma = test system: LOX IMVI melanoma
M14 melanoma = test system: M14 melanoma
MALME-3M melanoma = test system: MALME-3M melanoma
MCF7 breast = test system: MCF7 breast
MDA-MB-231 breast = test system: MDA-MB-231 breast
MDA-MB-435 = test system: MDA-MB-435
MOLT-4 leukemia = test system: MOLT-4 leukemia
NCI-H226 lung = test system: NCI-H226 lung
NCI-H23 lung = test system: NCI-H23 lung
NCI-H460 lung = test system: NCI-H460 lung
NCI-H522 lung = test system: NCI-H522 lung
NCI/ADR-RES ovarian = test system: NCI/ADR-RES ovarian
OVCAR-3 ovarian = test system: OVCAR-3 ovarian
OVCAR-4 ovarian = test system: OVCAR-4 ovarian
OVCAR-5 ovarian = test system: OVCAR-5 ovarian
OVCAR-8 ovarian = test system: OVCAR-8 ovarian
PC-3 prostate = test system: PC-3 prostate
RPMI-8226 leukemia = test system: RPMI-8226 leukemia
RXF 393 renal = test system: RXF 393 renal
SF-268 CNS = test system: SF-268 CNS
SF-295 CNS = test system: SF-295 CNS
SF-539 CNS = test system: SF-539 CNS
SK-MEL-2 melanoma = test system: SK-MEL-2 melanoma
SK-MEL-28 melanoma = test system: SK-MEL-28 melanoma
SK-MEL-5 melanoma = test system: SK-MEL-5 melanoma
SK-OV-3 ovarian = test system: SK-OV-3 ovarian
SN12C renal = test system: SN12C renal
SNB-19 CNS = test system: SNB-19 CNS
SNB-75 CNS = test system: SNB-75 CNS
SR leukemia = test system: SR leukemia
SW-620 colon = test system: SW-620 colon
T-47D breast = test system: T-47D breast
TK-10 renal = test system: TK-10 renal
U251 CNS = test system: U251 CNS
UACC-257 melanoma = test system: UACC-257 melanoma
UACC-62 melanoma = test system: UACC-62 melanoma
UO-31 renal = test system: UO-31 renal

## CC(=O)OC[C@]1(C)C=C2C(=O)[C@](C)(O)C3(CC3)C(C)=C2[C@H]1OC(=O)N(C)CCN(C)C(=O)OC(C)(C)C
786-0 renal
  GI50: 938 nM
  TGI: 2800 nM
A498 renal
  GI50: 1300 nM
  TGI: 4830 nM
A549 NSCLC
  GI50: 1360 nM
  TGI: 31100 nM
ACHN renal
  GI50: 947 nM
  TGI: 4200 nM
BT-549 breast
  GI50: 898 nM
  TGI: 3130 nM
CCRF-CEM leukemia
  GI50: 1440 nM
  TGI: > 33300 nM
COLO 205 colon
  GI50: 744 nM
  TGI: 2580 nM
DU-145 prostate
  GI50: 850 nM
  TGI: 20900 nM
EKVX NSCLC
  GI50: 1700 nM
  TGI: 10700 nM
HCC-2998 colon
  GI50: 1080 nM
  TGI: 3740 nM
HCT-116 colon
  GI50: 904 nM
  TGI: > 33300 nM
HCT-15 colon
  GI50: 889 nM
  TGI: > 33300 nM
HL-60(TB) leukemia
  GI50: 949 nM
  TGI: > 33300 nM
HOP-62 NSCLC
  GI50: 1010 nM
  TGI: 3790 nM
HOP-92 NSCLC
  GI50: 1080 nM
  TGI: 3020 nM
HS 578T breast
  GI50: 2170 nM
  TGI: 14900 nM
HT29 colon
  GI50: 612 nM
  TGI: 3260 nM
IGROV1 ovarian
  GI50: 732 nM
  TGI: 3900 nM
K-562 leukemia
  GI50: 1400 nM
  TGI: > 33300 nM
KM12 colon
  GI50: 1350 nM
  TGI: 30700 nM
LOX IMVI melanoma
  GI50: 1040 nM
  TGI: 7180 nM
M14 melanoma
  GI50: 788 nM
  TGI: 2400 nM
MALME-3M melanoma
  GI50: 784 nM
  TGI: 2270 nM
MCF7 breast
  GI50: 652 nM
  TGI: > 33300 nM
MDA-MB-231 breast
  GI50: 1110 nM
  TGI: 4720 nM
MDA-MB-435
  GI50: 809 nM
  TGI: 2350 nM
MOLT-4 leukemia
  GI50: 1550 nM
  TGI: > 33300 nM
NCI-H226 lung
  GI50: 9010 nM
  TGI: 25100 nM
NCI-H23 lung
  GI50: 651 nM
  TGI: 1910 nM
NCI-H460 lung
  GI50: 833 nM
  TGI: 4190 nM
NCI-H522 lung
  GI50: 668 nM
  TGI: 1620 nM
NCI/ADR-RES ovarian
  GI50: 812 nM
  TGI: 2550 nM
OVCAR-3 ovarian
  GI50: 1060 nM
  TGI: 4050 nM
OVCAR-4 ovarian
  GI50: 797 nM
  TGI: 2720 nM
OVCAR-5 ovarian
  GI50: 1090 nM
  TGI: 7180 nM
OVCAR-8 ovarian
  GI50: 1050 nM
  TGI: 32500 nM
PC-3 prostate
  GI50: 1120 nM
  TGI: 6510 nM
RPMI-8226 leukemia
  GI50: 2270 nM
  TGI: 19100 nM
RXF 393 renal
  GI50: 581 nM
  TGI: 1320 nM
SF-268 CNS
  GI50: 1170 nM
  TGI: 8570 nM
SF-295 CNS
  GI50: 926 nM
  TGI: 4880 nM
SF-539 CNS
  GI50: 816 nM
  TGI: 2240 nM
SK-MEL-2 melanoma
  GI50: 695 nM
  TGI: 1420 nM
SK-MEL-28 melanoma
  GI50: 1200 nM
  TGI: 4690 nM
SK-MEL-5 melanoma
  GI50: 630 nM
  TGI: 1400 nM
SK-OV-3 ovarian
  GI50: 1180 nM
  TGI: 5330 nM
SN12C renal
  GI50: 1220 nM
  TGI: 7830 nM
SNB-19 CNS
  GI50: 1190 nM
  TGI: > 33300 nM
SNB-75 CNS
  GI50: 1870 nM
  TGI: 8110 nM
SR leukemia
  GI50: 961 nM
  TGI: > 33300 nM
SW-620 colon
  GI50: 896 nM
  TGI: > 33300 nM
T-47D breast
  GI50: 858 nM
  TGI: 9640 nM
TK-10 renal
  GI50: 1370 nM
  TGI: 6870 nM
U251 CNS
  GI50: 1110 nM
  TGI: > 33300 nM
UACC-257 melanoma
  GI50: 1820 nM
  TGI: 13800 nM
UACC-62 melanoma
  GI50: 728 nM
  TGI: 1610 nM
UO-31 renal
  GI50: 732 nM
  TGI: 2230 nM
